Our source for the viscosity values is the CheMixHub viscosity set.

Series [1] can be described thus: xn = mol fraction of the nth substance listed. Particulars: 101 kPa.

The structures appear in SMILES notation. Several values for one entry are separate records, joined by “and”; a condition that tells them apart may be missing. Equal values may be shown once. ± gives the uncertainty stated by the source.

As usually defined, the viscosity is the resistance of a fluid to flow. Take `C=C(C)C(=O)OCCCC`: the viscosity was determined as 0.8768 ± 0.019 mPa·s (298.15 K, 101 kPa); 0.8077 ± 0.017 mPa·s (303.15 K, 101 kPa); 0.7483 ± 0.016 mPa·s (308.15 K, 101 kPa); 0.7012 ± 0.015 mPa·s (313.15 K, 101 kPa); 0.6639 ± 0.014 mPa·s (318.15 K, 101 kPa).

Turning to `C=CCN=C=S`, the viscosity is, setting by setting: (298.15 K, 101 kPa) 0.662 ± 0.018 mPa·s; (303.15 K, 101 kPa) 0.671 ± 0.018 mPa·s; (313.15 K, 100 kPa) 0.592 ± 0.005 mPa·s; (323.15 K, 101 kPa) 0.526 ± 0.014 mPa·s.

`C=CCc1ccc(O)c(OC)c1`: for the setting “298.15 K, 101 kPa”, the viscosity turned out to be 6.93 ± 0.084 mPa·s.

On to `CC(=O)[O-].CC[NH2+]CC`, for which the viscosity reads like this: (303.15 K, 101 kPa) 13.64 ± 0.28 mPa·s and 13.64 ± 0.35 mPa·s; (308.15 K, 101 kPa) 11.83 ± 0.24 mPa·s and 11.83 ± 0.3 mPa·s; (313.15 K, 101 kPa) 10.02 ± 0.21 mPa·s.

As to `CC(C)(C)C(=O)O`, the viscosity turned out to be 2.45 ± 0.03 mPa·s (313.15 K, 101 kPa); 2.23 ± 0.02 mPa·s (318.15 K, 101 kPa); 2.06 ± 0.02 mPa·s (323.15 K, 101 kPa).

Turning to `CC(C)NC(C)C`, the viscosity reads like this: (298.15 K, 100 kPa) 0.38 ± 0.02 mPa·s and 0.382 ± 0.012 mPa·s; (298.15 K, 101 kPa) 0.382 ± 0.06 mPa·s; (303.15 K, 100 kPa) 0.36 ± 0.02 mPa·s and 0.364 ± 0.011 mPa·s; (303.15 K, 101 kPa) 0.364 ± 0.06 mPa·s; (308.15 K, 100 kPa) 0.35 ± 0.02 mPa·s and 0.347 ± 0.011 mPa·s; (308.15 K, 101 kPa) 0.347 ± 0.06 mPa·s and 0.3089 ± 0.01 mPa·s.

In the case of `CC(CC(C)(C)C)CP(=O)([O-])CC(C)CC(C)(C)C.CCCCCCCC[P+](C)(C)C` (stereo unspecified), the viscosity was found to be 804 ± 50 mPa·s (298.15 K, 101 kPa); 560 ± 32 mPa·s (303.15 K, 101 kPa); 408 ± 21 mPa·s (308.15 K, 101 kPa); 306 ± 15 mPa·s (313.15 K, 101 kPa); 227 ± 10 mPa·s (318.15 K, 101 kPa); 177 ± 7 mPa·s (323.15 K, 101 kPa).

With `CCC(=O)c1ccccc1`, the viscosity is, setting by setting: (303.15 K, 100 kPa) 1.51 ± 0.02 mPa·s; (303.15 K, 101 kPa) 1.51 ± 0.02 mPa·s and 1.515 ± 0.063 mPa·s and 1.622 ± 0.037 mPa·s; (313.15 K, 101 kPa) 1.423 ± 0.059 mPa·s and 1.449 ± 0.033 mPa·s; (318.15 K, 101 kPa) 1.377 ± 0.057 mPa·s.

`CCCCCCCCCCCCCCCCCCCc1ccccc1` registered a viscosity (313.15 K, 101 kPa) of 8.33 ± 0.07 mPa·s.

Regarding `CCCCCCCCCCCO`, the viscosity came to 16.95 ± 0.39 mPa·s (293.15 K, 101.33 kPa) and 13.83 ± 0.32 mPa·s (298.15 K, 101.33 kPa).

For the compound `CCCCCCCCCc1ccccc1`, the viscosity is on record as 3.14 ± 0.03 mPa·s (293.15 K, 102 kPa); 2.51 ± 0.03 mPa·s (303.15 K, 102 kPa); 2.094 ± 0.043 mPa·s (313.15 K, 100 kPa); 2.05 ± 0.03 mPa·s (313.15 K, 102 kPa); 1.72 ± 0.03 mPa·s (323.15 K, 102 kPa).

In the case of `CCCCCCn1cc[n+](C)c1.[Cl-]`, the viscosity is, setting by setting: (293.15 K, 101 kPa) 11420 ± 1000 mPa·s; (303.15 K, 101 kPa) 4206 ± 320 mPa·s; (313.15 K, 101 kPa) 1718 ± 100 mPa·s; (323.15 K, 101 kPa) 1879 ± 600 mPa·s and 783.4 ± 38 mPa·s.

As to `CCCC[N+]1(C)CCCC1.N#C[C-](C#N)C#N`, the viscosity worked out at 20.56 ± 1.2 mPa·s (308.15 K, 101 kPa) and 15.44 ± 0.94 mPa·s (318.15 K, 101 kPa).

In turn, `CCCC[N+]1(C)CCCCC1.N#C[S-]` yielded a viscosity (318.15 K, 101 kPa) of 264.5 ± 59 mPa·s.

For `CCOC(=O)CC(C)=O`, the viscosity runs as follows: (293.15 K, 100 kPa) 1.656 ± 0.1 mPa·s; (298.15 K, 100 kPa) 1.51 ± 0.091 mPa·s.

For `CCOC(=O)CCBr`, under “303.15 K, 101 kPa”, the viscosity stood at 1.867 ± 0.011 mPa·s.

Regarding `CCOP(=O)([O-])OCC.CC[N+]1(C)CCOCC1`, the viscosity runs as follows: (293.15 K, 100 kPa) 12080 ± 1500 mPa·s; (298.15 K, 100 kPa) 6680 ± 740 mPa·s; (303.15 K, 100 kPa) 3786 ± 390 mPa·s; (308.15 K, 100 kPa) 2325 ± 220 mPa·s; (313.15 K, 100 kPa) 1466 ± 130 mPa·s; (318.15 K, 100 kPa) 941.7 ± 80 mPa·s. This compound also returned a viscosity (323.15 K, 100 kPa) of 634 ± 51 mPa·s.

Regarding `CC[NH3+].O=[N+]([O-])[O-]`, the viscosity reads like this: (293.15 K, 100 kPa) 40.61 ± 0.9 mPa·s; (293.15 K, 101 kPa) 43.5 mPa·s and 44.9 ± 1.2 mPa·s; (298 K, 101 kPa) 37.51 ± 1.2 mPa·s; (298.15 K, 100 kPa) 34.49 ± 0.77 mPa·s; (298.15 K, 101 kPa) 37.5 ± 1.6 mPa·s and 36.5 mPa·s; (303.15 K, 100 kPa) 29.65 ± 0.66 mPa·s. The compound also had a viscosity (303.15 K, 101 kPa) of 31 mPa·s; a viscosity (308.15 K, 100 kPa) of 25.76 ± 0.58 mPa·s; a viscosity (308.15 K, 101 kPa) of 26.5 mPa·s; a viscosity (313.15 K, 100 kPa) of 22.67 ± 0.51 mPa·s; a viscosity (313.15 K, 101 kPa) of 22.8 mPa·s; a viscosity (318.15 K, 100 kPa) of 20.12 ± 0.46 mPa·s. The viscosity turned out to be 20 mPa·s (318.15 K, 101 kPa) and 17.6 mPa·s (323.15 K, 101 kPa).

With `CN1CCNCC1`, the viscosity (298.15 K, 101 kPa) is 1.87 ± 0.04 mPa·s and the viscosity (313.15 K, 101 kPa) was 1.302 ± 0.028 mPa·s.

In the case of `NCc1ccccc1`, the viscosity reads like this: (303.15 K, 100 kPa) 1.497 ± 0.035 mPa·s; (303.15 K, 101 kPa) 1.415 ± 0.03 mPa·s; (313.15 K, 100 kPa) 1.262 ± 0.03 mPa·s; (323.15 K, 100 kPa) 1.071 ± 0.025 mPa·s.

For the compound `O=CN1CCOCC1`, the viscosity is 7.656 ± 0.15 mPa·s (298.15 K, 101 kPa); 7.613 ± 0.052 mPa·s (298.15 K, 101.3 kPa); 6.626 ± 0.18 mPa·s and 6.598 ± 0.13 mPa·s (303.15 K, 101 kPa); 5.731 ± 0.16 mPa·s (308.15 K, 101 kPa); 5.141 ± 0.14 mPa·s and 5.068 ± 0.11 mPa·s (313.15 K, 101 kPa); 4.036 ± 0.089 mPa·s (323.15 K, 101 kPa).

For the compound `OCCO`, the viscosity (293.15 K, 101.3 kPa) was 21.4 ± 0.6 mPa·s and 21.62 ± 0.88 mPa·s; the viscosity (293.15 K, 101.32 kPa) was determined as 19.2 ± 1.3 mPa·s; the viscosity (297.85 K, 101 kPa) is given as 17.7 ± 0.2 mPa·s; the viscosity (298.15 K, 100 kPa) was 17.7 ± 3.5 mPa·s and 17.87 ± 0.093 mPa·s; the viscosity (298.15 K, 101.3 kPa) was determined as 16.1 ± 2 mPa·s; the viscosity (298.15 K, 101.33 kPa) amounted to 15.31 ± 1.6 mPa·s. The viscosity reads like this: (302.85 K, 101 kPa) 14.4 ± 0.16 mPa·s; (303 K, 101 kPa) 15 ± 0.5 mPa·s; (303.15 K, 101.33 kPa) 12.24 ± 1.3 mPa·s; (307.85 K, 101 kPa) 11.92 ± 0.13 mPa·s; (308.15 K, 100 kPa) 11.07 ± 0.074 mPa·s; (308.15 K, 101 kPa) 10.97 ± 0.81 mPa·s and 12 ± 0.32 mPa·s and 11.66 ± 0.23 mPa·s. Also, the viscosity reads like this: (308.15 K, 101.33 kPa) 9.945 ± 1.1 mPa·s; (312.95 K, 101 kPa) 9.95 ± 0.11 mPa·s; (313.15 K, 101.3 kPa) 9.53 ± 0.39 mPa·s; (313.15 K, 101.32 kPa) 8.45 ± 0.58 mPa·s; (313.15 K, 101.33 kPa) 9.17 ± 0.29 mPa·s and 9.535 ± 1 mPa·s; (317.75 K, 101 kPa) 8.44 ± 0.09 mPa·s. Further, the viscosity is, setting by setting: (318.15 K, 100 kPa) 9.59 ± 0.09 mPa·s and 7.888 ± 3 mPa·s and 8.126 ± 0.06 mPa·s; (318.15 K, 101.3 kPa) 8.08 ± 0.33 mPa·s; (318.15 K, 101.33 kPa) 7.68 ± 0.25 mPa·s; (322.75 K, 101 kPa) 7.19 ± 0.07 mPa·s; (323.15 K, 101.3 kPa) 6.96 ± 0.18 mPa·s and 6.91 ± 0.28 mPa·s.

With `S=C=S`, the viscosity reads like this: (293.15 K, 101 kPa) 0.36 ± 0.01 mPa·s and 0.365 ± 0.004 mPa·s; (298.15 K, 101.33 kPa) 0.4077 ± 0.017 mPa·s.

Regarding `CC(=O)Nc1ccc(O)cc1` + O, the viscosity was 0.8928 ± 0.022 mPa·s and 0.8928 ± 0.0064 mPa·s in series [1] (298.15 K, x1 = 0.00011); 0.8964 ± 0.022 mPa·s and 0.8964 ± 0.0064 mPa·s in series [1] (298.15 K, x1 = 0.000241); 0.9001 ± 0.022 mPa·s and 0.9001 ± 0.0065 mPa·s in series [1] (298.15 K, x1 = 0.000483); 0.9061 ± 0.022 mPa·s and 0.9061 ± 0.0065 mPa·s in series [1] (298.15 K, x1 = 0.000727); 0.9121 ± 0.022 mPa·s and 0.9121 ± 0.0066 mPa·s in series [1] (298.15 K, x1 = 0.000975); 0.9178 ± 0.022 mPa·s and 0.9178 ± 0.0066 mPa·s in series [1] (298.15 K, x1 = 0.00122). In addition, the viscosity in series [1] (308.15 K, x1 = 0.00011) was 0.7208 ± 0.021 mPa·s and 0.7208 ± 0.0053 mPa·s; in series [1] (308.15 K, x1 = 0.000241), 0.7243 ± 0.021 mPa·s and 0.7243 ± 0.0053 mPa·s; in series [1] (308.15 K, x1 = 0.000483), 0.7281 ± 0.021 mPa·s and 0.7279 ± 0.0054 mPa·s; in series [1] (308.15 K, x1 = 0.000727), 0.7329 ± 0.021 mPa·s and 0.7329 ± 0.0054 mPa·s; in series [1] (308.15 K, x1 = 0.000975) it was 0.7378 ± 0.021 mPa·s and 0.7378 ± 0.0054 mPa·s; in series [1] (308.15 K, x1 = 0.00122) it was 0.7424 ± 0.021 mPa·s and 0.7424 ± 0.0059 mPa·s. Also, the viscosity was 0.598 ± 0.021 mPa·s and 0.598 ± 0.0045 mPa·s in series [1] (318.15 K, x1 = 0.00011); 0.6004 ± 0.021 mPa·s and 0.6004 ± 0.0045 mPa·s in series [1] (318.15 K, x1 = 0.000241); 0.6053 ± 0.021 mPa·s and 0.6053 ± 0.0046 mPa·s in series [1] (318.15 K, x1 = 0.000483); 0.6102 ± 0.021 mPa·s and 0.6102 ± 0.0046 mPa·s in series [1] (318.15 K, x1 = 0.000727); 0.6151 ± 0.021 mPa·s and 0.6151 ± 0.0047 mPa·s in series [1] (318.15 K, x1 = 0.000975); 0.6197 ± 0.021 mPa·s and 0.6197 ± 0.0047 mPa·s in series [1] (318.15 K, x1 = 0.00122).
